Source: patent publication US20260028354A1, “TETRAHYDRONAPHTHALENE DERIVATIVES AS ESTROGEN RECEPTOR DEGRADERS” (REGENT OF THE UNIVERSITY OF MICHIGAN, priority 2022, published 2026)

Experiment: Western blot analysis for "B" compounds
Type: cell-based
Conditions: read-out: Traditional Western Degradation Potency (DC50)
Summary of the method: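 Compound-treated cells lysed in RIPA buffer with protease inhibitors; equal protein (BCA) run on 10% SDS-PAGE, transferred to PVDF and probed with target antibodies. Band intensities quantified by densitometry and normalized to GAPDH.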

`O=C1CCC(N2C(=O)c3cc4c(cc3C2=O)CN(CC(=O)N2CCC3(CC2)CCN(c2ccc([C@@H]5c6ccc(O)cc6CC[C@@H]5c5ccccc5)cc2)CC3)CC4)C(=O)N1` (stereo partly drawn) [Compound B195, 2-(2,6-dioxopiperidin-3-yl)-6-(2-(9-(4-((1R,2S)-6-hydroxy-2-phenyl-1,2,3,4-tetrahydronaphthalen-1-yl)phenyl)-3,9-diazaspiro[5.5]undecan-3-yl)-2-oxoethyl)-5,6,7,8-tetrahydro-1H-pyrrolo[3,4-g]isoquinoline-1,3(2H)-dione] and `O=C1CCC(N2C(=O)c3cc4c(cc3C2=O)CN(CC(=O)N2CCC3(CC2)CCN(c2ccc([C@@H]5c6ccc(O)cc6CC[C@@H]5c5ccc(F)cc5)cc2)CC3)C4)C(=O)N1` (stereo partly drawn) [Compound B272, 2-(2,6-dioxopiperidin-3-yl)-6-(2-(9-(4-((1R,2S)-2-(4-fluorophenyl)-6-hydroxy-1,2,3,4-tetrahydronaphthalen-1-yl)phenyl)-3,9-diazaspiro[5.5]undecan-3-yl)-2-oxoethyl)-6,7-dihydropyrrolo[3,4-f]isoindole-1,3(2H,5H)-dione] fall in the same range of DC50: 10 to 100 nM for the first, 10 to 100 nM for the second.

Compared with `O=C1CCC(N2Cc3cc4c(cc3C2=O)CN(C(=O)C2CCN(CC3CCN(c5ccc([C@@H]6c7ccc(O)cc7CC[C@@H]6c6ccccc6)cc5)CC3)CC2)C4)C(=O)N1` (stereo partly drawn) [Compound B199, 3-(6-(1-((1-(4-((1R,2S)-6-hydroxy-2-phenyl-1,2,3,4-tetrahydronaphthalen-1-yl)phenyl)piperidin-4-yl)methyl)piperidine-4-carbonyl)-1-oxo-3,5,6,7-tetrahydropyrrolo[3,4-f]isoindol-2(1H)-yl)piperidine-2,6-dione], `CN(C1CCC(C(=O)N2Cc3cc4c(cc3C2)C(=O)N(C2CCC(=O)NC2=O)C4)CC1)C1CCN(c2ccc([C@@H]3c4ccc(O)cc4CC[C@@H]3c3ccccc3)cc2)CC1` (stereo partly drawn) [Compound B201, 3-(6-(4-((1-(4-((1R,2S)-6-hydroxy-2-phenyl-1,2,3,4-tetrahydronaphthalen-1-yl)phenyl)piperidin-4-yl)(methyl)amino)cyclohexane-1-carbonyl)-1-oxo-3,5,6,7-tetrahydropyrrolo[3,4-f]isoindol-2(1H)-yl)piperidine-2,6-dione] is lower in DC50: greater than 100 nM for the first, 10 to 100 nM for the second.

First: CN(C1CCC(C(=O)N2Cc3cc4c(cc3C2)C(=O)N(C2CCC(=O)NC2=O)C4=O)CC1)C1CCN(c2ccc([C@@H]3c4ccc(O)cc4CC[C@@H]3c3ccccc3)cc2)CC1 (stereo partly drawn) [Compound B200, 2-(2,6-dioxopiperidin-3-yl)-6-(4-((1-(4-((1R,2S)-6-hydroxy-2-phenyl-1,2,3,4-tetrahydronaphthalen-1-yl)phenyl)piperidin-4-yl)(methyl)amino)cyclohexane-1-carbonyl)-6,7-dihydropyrrolo[3,4-f]isoindole-1,3(2H,5H)-dione]
Second: O=C1CCC(N2C(=O)c3cc4c(cc3C2=O)CN(CC2(F)CN(C(=O)C3CCN(c5ccc([C@@H]6c7ccc(O)cc7CC[C@@H]6c6ccccc6)cc5)CC3)C2)C4)C(=O)N1 (stereo partly drawn) [Compound B268, 2-(2,6-dioxopiperidin-3-yl)-6-((3-fluoro-1-(1-(4-((1R,2S)-6-hydroxy-2-phenyl-1,2,3,4-tetrahydronaphthalen-1-yl)phenyl)piperidine-4-carbonyl)azetidin-3-yl)methyl)-6,7-dihydropyrrolo[3,4-f]isoindole-1,3(2H,5H)-dione]
The DC50 of the first is lower: 10 to 100 nM for the first, greater than 100 nM for the second.

`CN(C1CCC(CN2Cc3cc4c(cc3C2)C(=O)N(C2CCC(=O)NC2=O)C4)CC1)C1CCN(c2ccc([C@@H]3c4ccc(O)cc4CC[C@@H]3c3ccccc3)cc2)CC1` (stereo partly drawn) [Compound B202, 3-(6-((4-((1-(4-((1R,2S)-6-hydroxy-2-phenyl-1,2,3,4-tetrahydronaphthalen-1-yl)phenyl)piperidin-4-yl)(methyl)amino)cyclohexyl)methyl)-1-oxo-3,5,6,7-tetrahydropyrrolo[3,4-f]isoindol-2(1H)-yl)piperidine-2,6-dione] and `O=C1CCC(N2C(=O)c3cc4c(cc3C2=O)CN(CC2CCN(CC3CCN(c5ccc([C@@H]6c7ccc(O)cc7CC[C@@H]6c6ccccc6)cc5)CC3)CC2)C4)C(=O)N1` (stereo partly drawn) [Compound B273, 2-(2,6-dioxopiperidin-3-yl)-6-((1-((1-(4-((1R,2S)-6-hydroxy-2-phenyl-1,2,3,4-tetrahydronaphthalen-1-yl)phenyl)piperidin-4-yl)methyl)piperidin-4-yl)methyl)-6,7-dihydropyrrolo[3,4-f]isoindole-1,3(2H,5H)-dione] cannot be ordered by DC50: greater than 100 nM for the first, greater than 100 nM for the second.

`O=C1CCC(N2C(=O)c3cc4c(cc3C2=O)CN(CC2(F)CCN(C(=O)C3CN(c5ccc([C@@H]6c7ccc(O)cc7CC[C@@H]6c6ccccc6)cc5)C3)CC2)C4)C(=O)N1` (stereo partly drawn) [Compound B262, 2-(2,6-dioxopiperidin-3-yl)-6-((4-fluoro-1-(1-(4-((1R,2S)-6-hydroxy-2-phenyl-1,2,3,4-tetrahydronaphthalen-1-yl)phenyl)azetidine-3-carbonyl)piperidin-4-yl)methyl)-6,7-dihydropyrrolo[3,4-f]isoindole-1,3(2H,5H)-dione] and `O=C1CCC(N2C(=O)c3cc4c(cc3C2=O)CN(CC2(F)CCN(C(=O)C3CCN(c5ccc([C@@H]6c7ccc(O)cc7CC[C@@H]6c6ccccc6)cc5)CC3)CC2)C4)C(=O)N1` (stereo partly drawn) [Compound B267, 2-(2,6-dioxopiperidin-3-yl)-6-((4-fluoro-1-(1-(4-((1R,2S)-6-hydroxy-2-phenyl-1,2,3,4-tetrahydronaphthalen-1-yl)phenyl)piperidine-4-carbonyl)piperidin-4-yl)methyl)-6,7-dihydropyrrolo[3,4-f]isoindole-1,3(2H,5H)-dione] cannot be ordered by DC50: greater than 100 nM for the first, greater than 100 nM for the second.

`O=C1CCC(N2C(=O)c3cc4c(cc3C2=O)CN(CC2CN(C(=O)C3CN(c5ccc([C@@H]6c7ccc(O)cc7CC[C@@H]6c6ccccc6)cc5)C3)C2)C4)C(=O)N1` (stereo partly drawn) [Compound B263, 2-(2,6-dioxopiperidin-3-yl)-6-((1-(1-(4-((1R,2S)-6-hydroxy-2-phenyl-1,2,3,4-tetrahydronaphthalen-1-yl)phenyl)azetidine-3-carbonyl)azetidin-3-yl)methyl)-6,7-dihydropyrrolo[3,4-f]isoindole-1,3(2H,5H)-dione] and `O=C1CCC(N2C(=O)c3cc4c(cc3C2=O)CN(CC2CCN(C(=O)C3CN(c5ccc([C@@H]6c7ccc(O)cc7CC[C@@H]6c6ccccc6)cc5)C3)CC2)C4)C(=O)N1` (stereo partly drawn) [Compound B264, 2-(2,6-dioxopiperidin-3-yl)-6-((1-(1-(4-((1R,2S)-6-hydroxy-2-phenyl-1,2,3,4-tetrahydronaphthalen-1-yl)phenyl)azetidine-3-carbonyl)piperidin-4-yl)methyl)-6,7-dihydropyrrolo[3,4-f]isoindole-1,3(2H,5H)-dione] cannot be ordered by DC50: greater than 100 nM for the first, greater than 100 nM for the second.

`O=C1CCC(N2C(=O)c3cc4c(cc3C2=O)CN(CC2(F)CCN(C(=O)C3(F)CN(c5ccc([C@@H]6c7ccc(O)cc7CC[C@@H]6c6ccccc6)cc5)C3)CC2)C4)C(=O)N1` (stereo partly drawn) [Compound B265, 2-(2,6-dioxopiperidin-3-yl)-6-((4-fluoro-1-(3-fluoro-1-(4-((1R,2S)-6-hydroxy-2-phenyl-1,2,3,4-tetrahydronaphthalen-1-yl)phenyl)azetidine-3-carbonyl)piperidin-4-yl)methyl)-6,7-dihydropyrrolo[3,4-f]isoindole-1,3(2H,5H)-dione] and `O=C1CCC(N2C(=O)c3cc4c(cc3C2=O)CN(CC2CCN(C(=O)C3(F)CN(c5ccc([C@@H]6c7ccc(O)cc7CC[C@@H]6c6ccccc6)cc5)C3)CC2)C4)C(=O)N1` (stereo partly drawn) [Compound B266, 2-(2,6-dioxopiperidin-3-yl)-6-((1-(3-fluoro-1-(4-((1R,2S)-6-hydroxy-2-phenyl-1,2,3,4-tetrahydronaphthalen-1-yl)phenyl)azetidine-3-carbonyl)piperidin-4-yl)methyl)-6,7-dihydropyrrolo[3,4-f]isoindolc-1,3(2H,5H)-dionc] cannot be ordered by DC50: greater than 100 nM for the first, greater than 100 nM for the second.

`O=C1CCC(N2C(=O)c3cc4c(cc3C2=O)CN(CC2CCN(C(=O)C3(F)CCN(c5ccc([C@@H]6c7ccc(O)cc7CC[C@@H]6c6ccccc6)cc5)CC3)CC2)C4)C(=O)N1` (stereo partly drawn) [Compound B269, 2-(2,6-dioxopiperidin-3-yl)-6-((1-(4-fluoro-1-(4-((1R,2S)-6-hydroxy-2-phenyl-1,2,3,4-tetrahydronaphthalen-1-yl)phenyl)piperidine-4-carbonyl)piperidin-4-yl)methyl)-6,7-dihydropyrrolo[3,4-f]isoindole-1,3(2H,5H)-dione] and `O=C1CCC(N2C(=O)c3cc4c(cc3C2=O)CN(CC2(F)CCN(CC3CCN(c5ccc([C@@H]6c7ccc(O)cc7CC[C@@H]6c6ccccc6)cc5)CC3)CC2)C4)C(=O)N1` (stereo partly drawn) [Compound B270, 2-(2,6-dioxopiperidin-3-yl)-6-((4-fluoro-1-((1-(4-((1R,2S)-6-hydroxy-2-phenyl-1,2,3,4-tetrahydronaphthalen-1-yl)phenyl)piperidin-4-yl)methyl)piperidin-4-yl)methyl)-6,7-dihydropyrrolo[3,4-f]isoindole-1,3(2H,5H)-dione] cannot be ordered by DC50: greater than 100 nM for the first, greater than 100 nM for the second.

`O=C1CCC(N2C(=O)c3cc4c(cc3C2=O)CN(CC2(F)CN(CC3CCN(c5ccc([C@@H]6c7ccc(O)cc7CC[C@@H]6c6ccccc6)cc5)CC3)C2)C4)C(=O)N1` (stereo partly drawn) [Compound B271, 2-(2,6-dioxopiperidin-3-yl)-6-((3-fluoro-1-((1-(4-((1R,2S)-6-hydroxy-2-phenyl-1,2,3,4-tetrahydronaphthalen-1-yl)phenyl)piperidin-4-yl)methyl)azetidin-3-yl)methyl)-6,7-dihydropyrrolo[3,4-f]isoindole-1,3(2H,5H)-dione] and `O=C1CCC(N2C(=O)c3cc4c(cc3C2=O)CN(CC2CN(CC3CCN(c5ccc([C@@H]6c7ccc(O)cc7CC[C@@H]6c6ccccc6)cc5)CC3)C2)C4)C(=O)N1` (stereo partly drawn) [Compound B274, 2-(2,6-dioxopiperidin-3-yl)-6-((1-((1-(4-((1R,2S)-6-hydroxy-2-phenyl-1,2,3,4-tetrahydronaphthalen-1-yl)phenyl)piperidin-4-yl)methyl)azetidin-3-yl)methyl)-6,7-dihydropyrrolo[3,4-f]isoindole-1,3(2H,5H)-dione] cannot be ordered by DC50: greater than 100 nM for the first, greater than 100 nM for the second.
